Consider 21 compounds from patent US7132536B2, “Triaza- and tetraaza-anthracenedione derivatives, their preparation and their use as pharmaceuticals” (Sanofi-aventis Deutschland GmbH, priority 2003, dated 2006).

pEC50: −log10 of the molar value. Counter-ions that a name gives are not always drawn.

The subject of this assay is eNOS promoter. Kind of assay: Activation of eNOS transcription (eNOS promoter-luciferase reporter gene assay). The note with it: human endothelial cell line stably transfected with eNOS promoter-firefly luciferase construct; 18 h incubation; EC50 determined graphically; read-out: EC50 of transcription induction ratio (TIR). The assay is classed as cell-based. The method, then: Activation of eNOS transcription was measured as described in detail by Li et al., “Activation of protein kinase C alpha and/or epsilon enhances transcription of the human endothelial nitric oxide synthase gene”, Mol. Pharmacol. 53 (1998) 630. Briefly, a 3.5 kB long fragment 5′ of the starting codon of the eNOS gene was cloned, sequenced and cloned in firefly luciferase expression plasmids to monitor activation of the eNOS promoter by reporter gene activity. A human endothelial cell line stable transfected and expressing this promoter-reporter construct was used for compound testing. Cells were incubated for 18 h with the compounds.
All compounds were dissolved in sterile dimethylsulfoxide (DMSO). A final concentration of 0.5% DMSO in complete medium was allowed. Induction of reporter gene expression in these cells was measured using a standard luciferase assay system (Promega, Cat. No. E150) according to the manufacturer's instructions. Luciferase induction in cells incubated with compounds were compared to those incubated with solvent alone. The ratio of both activities (transcription induction ratio, TIR) was plotted as a function of compound concentration. Typically, TIR values started at low concentrations at a ratio of 1, indicating no compound effect, and extended up to a maximum TIR value TIR(max) which indicates the increase of the eNOS transcription. EC50 values of transcription induction ratios as a function of compound concentration were determined graphically.
Regarding `CC(C)[C@H]1C(=O)N(CCCCc2ccccc2)CC2N(CCCn3ccnc3)c3ccc([N+](=O)[O-])cc3C(=O)N21` (stereo partly drawn) [Example 1, (4S)-9-(3-(Imidazol-1-yl)propyl)-4-isopropyl-6-nitro-2-(4-phenylbutyl)-1,2,9,9a-tetrahydro-2,4a,9-triaza-anthracene-3,10(4H)-dione trifluoroacetic acid salt], the pEC50 was 5.66.

As for `CC(C)[C@H]1C(=O)N(Cc2ccc(C(C)(C)C)cc2)CC2N(CCCn3ccnc3)c3ccc([N+](=O)[O-])cc3C(=O)N21` (stereo partly drawn) [Example 2, (4S)-2-(4-tert-Butylbenzyl)-9-(3-(imidazol-1-yl)propyl)-4-isopropyl-6-nitro-1,2,9,9a-tetrahydro-2,4a,9-triaza-anthracene-3,10(4H)-dione trifluoroacetic acid salt], the pEC50 is 5.92.

Take `CC(C)[C@H]1C(=O)N(Cc2cccc3ccccc23)CC2N(CCCn3ccnc3)c3ccc([N+](=O)[O-])cc3C(=O)N21` (stereo partly drawn) [Example 3, (4S)-9-(3-(Imidazol-1-yl)propyl)-4-isopropyl-2-(naphth-1-ylmethyl)-6-nitro-1,2,9,9a-tetrahydro-2,4a,9-triaza-anthracene-3,10(4H)-dione trifluoroacetic acid salt]: the pEC50 is 4.70.

With `O=C1[C@H](Cc2cccc(F)c2)N2C(=O)c3cc([N+](=O)[O-])ccc3N(CCCn3ccnc3)C2CN1CCCCc1ccccc1` (stereo partly drawn) [Example 4, (4S)-4-(3-Fluorobenzyl)-9-(3-(imidazol-1-yl)propyl)-6-nitro-2-(4-phenylbutyl)-1,2,9,9a-tetrahydro-2,4a,9-triaza-anthracene-3,10(4H)-dione trifluoroacetic acid salt], the pEC50 is 5.10.

Consider `O=C1[C@H](C2CCCCC2)N2C(=O)c3cc([N+](=O)[O-])ccc3N(CCCn3ccnc3)C2CN1CCCCc1ccccc1` (stereo partly drawn) [Example 5, (4S)-4-Cyclohexyl-9-(3-(imidazol-1-yl)propyl)-6-nitro-2-(4-phenylbutyl)-1,2,9,9a-tetrahydro-2,4a,9-triaza-anthracene-3,10(4H)-dione trifluoroacetic acid salt], for which the pEC50 was 5.55.

Take `COc1ccc(C[C@H]2C(=O)N(CCCCc3ccccc3)CC3N(CCCn4ccnc4)c4ccc([N+](=O)[O-])cc4C(=O)N32)cc1OC` (stereo partly drawn) [Example 6, (4S)-4-(3,4-Dimethoxybenzyl)-9-(3-(imidazol-1-yl)propyl)-6-nitro-2-(4-phenylbutyl)-1,2,9,9a-tetrahydro-2,4a,9-triaza-anthracene-3,10(4H)-dione trifluoroacetic acid salt]: the pEC50 is 4.62.

As to `CC(C)[C@H]1C(=O)N(CCCCc2ccccc2)CC2N(CCc3ccncc3)c3ccc([N+](=O)[O-])cc3C(=O)N21` (stereo partly drawn) [Example 7, (4S)-4-Isopropyl-6-nitro-2-(4-phenylbutyl)-9-(2-(pyridin-4-yl)ethyl)-1,2,9,9a-tetrahydro-2,4a,9-triaza-anthracene-3,10(4H)-dione trifluoroacetic acid salt], the pEC50 is 4.70.

With `O=C1[C@H](Cc2c[nH]cn2)N2C(=O)c3cc([N+](=O)[O-])ccc3N(CCCCc3ccccc3)C2CN1CCCCc1ccccc1` (stereo partly drawn) [Example 8, (4S)-4-(1H—Imidazol-4-ylmethyl)-6-nitro-2,9-bis(4-phenylbutyl)-1,2,9,9a-tetrahydro-2,4a,9-triaza-anthracene-3,10(4H)-dione trifluoroacetic acid salt], the pEC50 was 5.22.

As for `O=C1[C@H](Cc2c[nH]cn2)N2C(=O)c3cc([N+](=O)[O-])ccc3N(Cc3ccc(OC(F)(F)F)cc3)C2CN1CCCCc1ccccc1` (stereo partly drawn) [Example 9, (4S)-4-(1H-Imidazol-4-ylmethyl)-6-nitro-2-(4-phenylbutyl)-9-(4-trifluoromethoxy-benzyl)-1,2,9,9a-tetrahydro-2,4a,9-triaza-anthracene-3,10(4H)-dione trifluoroacetic acid salt], the pEC50 was 5.08.

Regarding `CC(C)[C@H]1C(=O)N(CCCCc2ccccc2)CC2N(CCCn3ccnc3)c3ccc(C(F)(F)F)cc3C(=O)N21` (stereo partly drawn) [Example 10, (4S)-9-(3-(Imidazol-1-yl)propyl)-4-isopropyl-2-(4-phenylbutyl)-6-trifluoromethyl-1,2,9,9a-tetrahydro-2,4a,9-triaza-anthracene-3,10(4H)-dione trifluoroacetic acid salt], the pEC50 is 4.92.

For `CC(C)[C@H]1C(=O)N(Cc2ccc(C(F)(F)F)cc2)CC2N(CCCn3ccnc3)c3ccc(C(F)(F)F)cc3C(=O)N21` (stereo partly drawn) [Example 11, (4S)-9-(3-(Imidazol-1-yl)propyl)-4-isopropyl-6-trifluoromethyl-2-(4-trifluoromethyl-benzyl)-1,2,9,9a-tetrahydro-2,4a,9-triaza-anthracene-3,10(4H)-dione trifluoroacetic acid salt], the pEC50 is 4.70.

In the case of `CC(C)[C@H]1C(=O)N(Cc2ccc(C(F)(F)F)cc2)CC2N(CCc3ccncc3)c3ccc(C(F)(F)F)cc3C(=O)N21` (stereo partly drawn) [Example 12, (4S)-4-Isopropyl-9-(2-(pyridin-4-yl)ethyl)-6-trifluoromethyl-2-(4-trifluoromethylbenzyl)-1,2,9,9a-tetrahydro-2,4a,9-triaza-anthracene-3,10(4H)-dione trifluoroacetic acid salt], the pEC50 is 4.70.

Take `O=C1[C@H](C2CCCCC2)N2C(=O)c3cc(C(F)(F)F)ccc3N(CCCn3ccnc3)C2CN1CCCCc1ccccc1` (stereo partly drawn) [Example 13, (4S)-4-Cyclohexyl-9-(3-(imidazol-1-yl)propyl)-2-(4-phenylbutyl)-6-trifluoromethyl-1,2,9,9a-tetrahydro-2,4a,9-triaza-anthracene-3,10(4H)-dione trifluoroacetic acid salt]: the pEC50 was 5.15.

In the case of `COc1ccc(CN2CC3N(CCCn4ccnc4)c4ccc(C(F)(F)F)cc4C(=O)N3[C@@H](C(C)C)C2=O)c(OC)c1` (stereo partly drawn) [Example 14, (4S)-2-(2,4-Dimethoxybenzyl)-9-(3-(imidazol-1-yl)propyl)-4-isopropyl-6-trifluoromethyl-1,2,9,9a-tetrahydro-2,4a,9-triaza-anthracene-3,10(4H)-dione trifluoroacetic acid salt], the pEC50 is 4.92.

Consider `CC(C)[C@H]1C(=O)N(Cc2ccc(C(C)(C)C)cc2)CC2N(CCCn3ccnc3)c3ccc(C(F)(F)F)cc3C(=O)N21` (stereo partly drawn) [Example 15, (4S)-2-(4-tert-Butylbenzyl)-9-(3-(imidazol-1-yl)propyl)-4-isopropyl-6-trifluoromethyl-1,2,9,9a-tetrahydro-2,4a,9-triaza-anthracene-3,10(4H)-dione trifluoroacetic acid salt], for which the pEC50 is 5.40.

On to `O=C1[C@H](Cc2cccc(F)c2)N2C(=O)c3cc(C(F)(F)F)ccc3N(CCCn3ccnc3)C2CN1CCCCc1ccccc1` (stereo partly drawn) [Example 16, (4S)-4-(3-Fluorobenzyl)-9-(3-(imidazol-1-yl)propyl)-2-(4-phenylbutyl)-6-trifluoromethyl-1,2,9,9a-tetrahydro-2,4a,9-triaza-anthracene-3,10(4H)-dione trifluoroacetic acid salt], for which the pEC50 was 5.10.

As for `CC(C)C1C(=O)N(Cc2ccc(C(C)(C)C)cc2)CC2N(CCCn3ccnc3)c3cccnc3C(=O)N12` (stereo not drawn) [Example 36, 6-(4-tert-Butylbenzyl)-10-(3-(imidazol-1-yl)propyl)-8-isopropyl-5,6,10,10a-tetrahydro-1,6,8a,10-tetraaza-anthracene-7,9(8H)-dione trifluoroacetic acid salt], the pEC50 is 4.00.

`Cc1ccc2c(n1)C(=O)N1C(C(C)C)C(=O)N(Cc3ccc(C(C)(C)C)cc3)CC1N2CCCn1ccnc1` (stereo not drawn) [Example 37, 6-(4-tert-Butylbenzyl)-10-(3-(imidazol-1-yl)propyl)-8-isopropyl-2-methyl-5,6,10,10a-tetrahydro-1,6,8a,10-tetraaza-anthracene-7,9(8H)-dione trifluoroacetic acid salt]: the pEC50 is 4.00.

On to `CC[C@H]1C(=O)N(Cc2ccc(C(C)(C)C)cc2)CC2N(CCCn3ccnc3)c3ccc([N+](=O)[O-])cc3C(=O)N21` (stereo partly drawn) [Example 38, (4S)-2-(4-tert-Butylbenzyl)-4-ethyl-9-(3-(imidazol-1-yl)propyl)-6-nitro-1,2,9,9a-tetrahydro-2,4a,9-triaza-anthracene-3,10(4H)-dione trifluoroacetic acid salt], for which the pEC50 was 6.40.

On to `CC(C)C1C(=O)N(Cc2ccc(C(C)(C)C)cc2)CC2N(CCCn3ccnc3)c3ccc([N+](=O)[O-])cc3C(=O)N12` (stereo not drawn) [Example 39, 2-(4-tert-Butylbenzyl)-9-(3-(imidazol-1-yl)propyl)-4-isopropyl-6-nitro-1,2,9,9a-tetrahydro-2,4a,9-triaza-anthracene-3,10(4H)-dione trifluoroacetic acid salt], for which the pEC50 was 6.54.

Turning to `CCC1C(=O)N(Cc2ccc(C(C)(C)C)cc2)CC2N(CCc3ccncc3)c3ccc([N+](=O)[O-])cc3C(=O)N12` (stereo not drawn) [Example 40, 2-(4-tert-Butylbenzyl)-4-ethyl-6-nitro-9-(2-(pyridin-4-yl)ethyl)-1,2,9,9a-tetrahydro-2,4a,9-triaza-anthracene-3,10(4H)-dione trifluoroacetic acid salt], the pEC50 is 6.66.
